We go through eleven compounds from patent US10792633B2, “Composition comprising a fluorine-containing surfactant” (HWK-Kronbichler GmbH, priority 2016, dated 2020).

In brackets after ≈: the same amount, converted by molar mass. Where two headings read alike, the source gives them in different places. Marks after values point to notes of the source that are not given here.

Common to all, as to assay type: physicochemical
Data set [1] is described as follows: Determining the solubility in water. As to conditions: for solubility at 5 min: water, 23 °C, thermodynamic from solid. Here is the method:
The suspension was added to the ultrasound bath for 5 minutes and was centrifuged for 20 minutes. The supernatant was then weighed and was rinsed with argon for 5 minutes to remove any possibly dissolved oxygen. […] The experiment was performed at approximately 23° C.

Data set [2] is described as follows: Measurement of surface tension at suspended drop (Drop Shape Analyser DSA 25). Here is the method: The surface tension was determined at suspended drop using a “Drop Shape Analyser DSA 25” of the Krüss corporation. The drop volume at most measurements amounted to approximately 5 μl. […] Each sample was measured a total of ten times. The standard deviations are marked by s in the table shown below. In the measurements at a concentration of 0.05 wt % surfactant, larger drop volumes were used in some cases to obtain a better reproducibility of the measurement results.

Data set [3] in a line: Determination of the static surface tension in water (Example 10). As to conditions: mean of 10. The text has this: The determination of the static surface tension for 3-(1H,1H,2H,2H-perfluorooctyl)-2-((1H,1H,2H,2H-perfluorooctyl)thio)-1-methyl-1H-imidazolium chloride in water produced the values indicated in the following Table 6 for the surface tension (OFS) in […] at different concentrations c in wt %. The values for OFS represent the mean value from 10 measurements. The standard deviation S [mN/m] for these values is likewise indicated.

A short description of data set [4]: Solubility in organic solvents.
A short description of data set [5]: Use as an emulsifying agent for Teflon (stability of the suspension in water). The following applies: 0.100 g surfactant and 0.200 g Teflon 1 μm in water. The protocol: A solution of 10 ml water, 0.100 g 1-methyl-2-((1H,1H,2H,2H-perfluorooctyl)thio)-1H-imidazolium-2-acrylamido-2-methylpropanesulfonate was dissolved in 10 ml water and 0.200 g Teflon 1 μm (Sigmal-Aldrich) were subsequently added to this solution. A suspension was formed in this process that remained stable for at least 4 hours. After 2 days a white powder had been deposited on the bottom.

Where [6] appears, read: surfactant in water 0.05 wt %, n = 10, drop approx. 5 μl, * 8 μl, ** 20 μl.
[7] abbreviates: surfactant in water 0.5 wt %, n = 10, 24.5-25.1° C.

On to `CC1(C)C2CCC1(CS(=O)(=O)O)C(=O)C2.Cn1ccnc1SCCC(F)(F)C(F)(F)C(F)(F)C(F)(F)C(F)(F)C(F)(F)F` [1-methyl-2-((1H,1H,2H,2H-perfluorooctyl)thio)imidazolium-(±)-camphor-10-sulfonate], for which, in data set [1] (values not exact), the “Solubility in water” value was over 4000 mg/mL.

With `N.O=C(O)C(F)(F)C(F)OC(F)(F)C(F)(F)C(F)(F)OC(F)(F)F` (centres unmarked) [Ammonium-4,8-dioxa-3H-perfluorononanoate, reference compound], the “OFS (surface tension)” value in data set [2] (setting [6]) is listed as 64.87** mN/m; in data set [2] (setting [7]), 46.42 mN/m.

As to `Br.Cn1ccnc1SCCC(F)(F)C(F)(F)C(F)(F)C(F)(F)C(F)(F)C(F)(F)F` [1-methyl-2-((1H,1H,2H,2H-perfluorooctyl)thio)imidazoliumbromide], the “Solubility in water” value in data set [1] (values not exact) was 1200 mg/mL.

`Cl.Cn1ccnc1SCCC(F)(F)C(F)(F)C(F)(F)C(F)(F)C(F)(F)C(F)(F)F` [1-methyl-2-((1H,1H,2H,2H-perfluorooctyl)thio)imidazoliumchloride]: the “Solubility in water” value in data set [1] (values not exact) was found to be 1750 mg/mL.

As for `Cn1cc[n+](CCC(F)(F)C(F)(F)C(F)(F)C(F)(F)C(F)(F)C(F)(F)F)c1SCCC(F)(F)C(F)(F)C(F)(F)C(F)(F)C(F)(F)C(F)(F)F.[Cl-]` [3-(1H,1H,2H,2H-perfluorooctyl)-2-((1H,1H,2H,2H-perfluorooctyl)thio)-1-methyl-1H-imidazolium chloride], the “OFS (static surface tension)” value in data set [3] (c 0.0025 wt % in water) is on record as 40.74 mN/m; in data set [3] (c 0.0050 wt % in water), 21.29 mN/m; in data set [3] (c 0.0075 wt % in water), 18.89 mN/m; in data set [3] (c 0.0100 wt % in water), 16.29 mN/m; in data set [3] (c 0.0250 wt % in water) it was 14.43 mN/m; in data set [3] (c 0.0500 wt % in water), 15.05 mN/m. In addition, the “OFS (static surface tension)” value in data set [3] (c 0.0750 wt % in water) amounted to 15.02 mN/m; in data set [3] (c 0.1000 wt % in water), 15 mN/m; in data set [3] (c 0.2500 wt % in water), 15.5 mN/m; in data set [3] (c 0.5000 wt % in water) it was 14.5 mN/m.

Regarding “1-methyl-2-((perfluorohexylethyl)thio)imidazoliumiodide-Co-1-iodoperfluorooctylane [1-iodoperfluorooctyl-Co-complex]”, the “Solubility in 3M Novec 71 IPA” value in data set [4] was found to be 20.5 mg/mL.

On to `Cn1cc[n+](CCCS(=O)(=O)[O-])c1SCCC(F)(F)C(F)(F)C(F)(F)C(F)(F)C(F)(F)C(F)(F)F` [Synthesis Example 6, 3-(1-methyl-2-((1H,1H,2H,2H-perfluorooctyl)thio)imidazolium-3-yl) propane-1-sulfonate], for which the solubility – broadly, how much of the substance goes into solution per volume – at 5 min in data set [1] (values not exact, read-out: Solubility in water) is 160 mg/mL (≈ 275 mM); in data set [1] (read-out: water solubility), about 160 mg/mL (≈ 275 mM). Further, the entries for the “OFS (surface tension)” value in data set [2] (setting [6]) and in data set [2] (setting [7]) were 29.74* mN/m and 24.94 mN/m, respectively.

As for `CS(=O)(=O)O.Cn1ccnc1SCCC(F)(F)C(F)(F)C(F)(F)C(F)(F)C(F)(F)C(F)(F)F` [1-methyl-2-((1H,1H,2H,2H-perfluorooctyl)thio)-1H-imidazolium-methanesulfonate], the “OFS (surface tension)” value amounted to 24.39 mN/m in data set [2] (setting [6]) and 16.21 mN/m in data set [2] (setting [7]).

Regarding `O=C(O)C(F)(F)C(F)(F)C(F)(F)C(F)(F)C(F)(F)C(F)(F)C(F)(F)F` [Perfluorooctanoic acid, reference compound], the “OFS (surface tension)” value in data set [2] (setting [6]) was 55.68** mN/m; in data set [2] (setting [7]), 16 mN/m.

Take “1-methyl-2-((1H,1H,2H,2H-perfluorooctyl)thio)-1H-imidazolium-2-(methacryloyloxy)ethane-1-sulfonate [Synthesis Example 1]”: the Solubility in water result in data set [1] (approximately 23° C., ultrasound bath 5 minutes, centrifuged 20 minutes) is listed as “approximately 430 g/L”. Also, the “OFS (surface tension)” value in data set [2] (c 0.005 % in water) amounted to 70.28 mN/m; in data set [2] (c 0.01 % in water), 32.11 mN/m; in data set [2] (c 0.1 % in water) it was 20.8 mN/m; in data set [2] (setting [6]), 23.24 mN/m; in data set [2] (setting [7]), 16.22 mN/m.

For `C=CC(=O)NC(C)(C)CS(=O)(=O)O.Cn1ccnc1SCCC(F)(F)C(F)(F)C(F)(F)C(F)(F)C(F)(F)C(F)(F)F` [Synthesis Example 2, 1-methyl-2-((1H,1H,2H,2H-perfluorooctyl)thio)-1H-imidazolium-2-acrylamido-2-methylpropanesulfonate], the “soluble in water (in words)” value in data set [1] is on record as “soluble in water”. Besides, in data set [5], the “time the Teflon suspension remained stable” value is “at least 4 hours”.
